Reference: the supplement of paper PMC4862054

Legend:
Settings in all cases: incubation time: 72 h
BT-474 [1] = assay: drug sensitivity score (DSS), CellTox Green (DSS (AUC-based score)); higher = stronger drug effect (viability inhibition or cytotoxicity); extreme values may be limits of the assay
How it was run: (§1)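 Breast cancer cell lines (20 µl suspension) were seeded into 384-well plates holding compound at 5 concentrations in 10-fold steps over a compound-specific 10,000-fold range, then incubated 72 h. CellTox Green fluorescence (485/520 nm) was read first, then CellTiter-Glo luminescence after 10 min at room temperature. Each plate was normalised to 0.1 % DMSO and a positive kill control. The drug sensitivity score was calculated from the area under the fitted dose-response curve.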

CAL-120 [2] = assay: as above
How it was run: as §1

CAL-148 = assay: as above
How it was run: as §1

CAL-51 [3] = assay: as above
How it was run: as §1

CAL-85-1 [4] = assay: as above
How it was run: as §1

DU-4475 [5] = assay: as above
How it was run: as §1

HCC1143 [6] = assay: as above
How it was run: as §1

Hs578T [7] = assay: as above
How it was run: as §1

MCF-10A [8] = assay: as above
How it was run: as §1

MDA-MB-453 [9] = assay: as above
How it was run: as §1

MDA-MB-468 [10] = assay: as above
How it was run: as §1

MFM-223 = assay: as above
How it was run: as §1

BT-474 [11] = assay: normalised response (% of control), CellTox Green; higher = less cell death (100 = DMSO, 0 = benzethonium chloride kill control)
How it was run: (§2)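 CellTox Green fluorescence (485/520 nm) and, after 10 min at room temperature, CellTiter-Glo luminescence were read from breast cancer cell lines incubated 72 h in 384-well plates. Cells were seeded as 20 µl suspension onto compound at 5 concentrations in 10-fold steps over a 10,000-fold range chosen per compound. Each plate was normalised to 0.1 % DMSO (100) and a positive kill control (0). Values are normalised signals, one per concentration.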

BT-549 = assay: as above
How it was run: as §2

CAL-120 [12] = assay: as above
How it was run: as §2

CAL-51 [13] = assay: as above
How it was run: as §2

CAL-85-1 [14] = assay: as above
How it was run: as §2

DU-4475 [15] = assay: as above
How it was run: as §2

HCC1143 [16] = assay: as above
How it was run: as §2

HCC1599 = assay: as above
How it was run: as §2

HCC1937 = assay: as above
How it was run: as §2

HDQ-P1 = assay: as above
How it was run: as §2

Hs578T [17] = assay: as above
How it was run: as §2

MCF-10A [18] = assay: as above
How it was run: as §2

MDA-MB-231 = assay: as above
How it was run: as §2

MDA-MB-436 = assay: as above
How it was run: as §2

MDA-MB-453 [19] = assay: as above
How it was run: as §2

MDA-MB-468 [20] = assay: as above
How it was run: as §2

SMILES	drug sensitivity score (BT-474 [1])	drug sensitivity score (CAL-120 [2])	drug sensitivity score (CAL-148)	drug sensitivity score (CAL-51 [3])	drug sensitivity score (CAL-85-1 [4])	drug sensitivity score (DU-4475 [5])	drug sensitivity score (HCC1143 [6])	drug sensitivity score (Hs578T [7])	drug sensitivity score (MCF-10A [8])	drug sensitivity score (MDA-MB-453 [9])	drug sensitivity score (MDA-MB-468 [10])	drug sensitivity score (MFM-223)	normalised response (BT-474 [11]) [%]	normalised response (BT-549) [%]	normalised response (CAL-120 [12]) [%]	normalised response (CAL-51 [13]) [%]	normalised response (CAL-85-1 [14]) [%]	normalised response (DU-4475 [15]) [%]	normalised response (HCC1143 [16]) [%]	normalised response (HCC1599) [%]	normalised response (HCC1937) [%]	normalised response (HDQ-P1) [%]	normalised response (Hs578T [17]) [%]	normalised response (MCF-10A [18]) [%]	normalised response (MDA-MB-231) [%]	normalised response (MDA-MB-436) [%]	normalised response (MDA-MB-453 [19]) [%]	normalised response (MDA-MB-468 [20]) [%]
COc1ccc(-c2cc3c(C)nc(N)nc3n([C@H]3CC[C@H](OCCO)CC3)c2=O)cn1	11.5	0	12.3	12.5	4.01	0	0	2	0	0	0	0	–	–	–	–	–	–	–	–	–	–	–	–	–	–	–	–
Cc1c(Cn2c(C)nc3c(C(=O)O)cc(N4CCOCC4)cc32)cccc1C(F)(F)F	0	0	0	0	0	0	0	0	0	0	0	0	–	–	–	–	–	–	–	–	–	–	–	–	–	–	–	–
CC/C(=C(\c1ccc(O)cc1)c1ccc(OCCN(C)C)cc1)c1ccccc1 [4-hydroxytamoxifen]	3.8	1.11	0	0	1.62	0	1.54	–	0	1	21	0	–	–	–	–	–	–	–	–	–	–	–	–	–	–	–	–
CCCCC/C=C/C=C1/C(=O)C=C[C@@H]1C/C=C\CCCC(=O)O [15D-PGJ2]	0	0	0	0	0	0	0	0	0	0	0	0	–	–	–	–	–	–	–	–	–	–	–	–	–	–	–	–
O=C(Nc1c[nH]nc1-c1nc2ccc(CN3CCOCC3)cc2[nH]1)NC1CC1 [AT9283]	0	3.42	0	14	–	0	0	0.649	0	0	13.2	0	–	–	–	–	–	–	–	–	–	–	–	–	–	–	–	–
COc1cc(CCc2cc(NC(=O)c3ccc(N4CC(C)NC(C)C4)cc3)n[nH]2)cc(OC)c1 (stereo not given) [AZD4547]	0	0.0106	0.783	0	0	0	3.67	0	0	0	0	0	–	–	–	–	–	–	–	–	–	–	–	–	–	–	–	–
CC(=O)OC[C@H]1O[C@@H]([S-])[C@H](OC(C)=O)[C@@H](OC(C)=O)[C@@H]1OC(C)=O.CCP(CC)CC.[Au+] [Auranofin]	3.42	0.776	0.881	3.46	4.88	0	0.33	0	0	1.98	9.05	1.22	–	–	–	–	–	–	–	–	–	–	–	–	–	–	–	–
O=S(=O)(c1cccc2cnccc12)N1CCCNCC1 [Fasudil]	0	0	0	0	0	0	0	0	0	0	–	0	–	–	–	–	–	–	–	–	–	–	–	–	–	–	–	–
O=C1c2c(O)ccc(O)c2C(=O)c2c(NCCNCCO)ccc(NCCNCCO)c21 [Mitoxantrone] (100 nM)	–	–	–	–	–	–	–	–	–	–	–	–	101	117	-30.1	92.8	101	99.1	109	91	117	101	106	113	94.8	87.8	104	158
O=C1c2c(O)ccc(O)c2C(=O)c2c(NCCNCCO)ccc(NCCNCCO)c21 [Mitoxantrone] (1000 nM)	–	–	–	–	–	–	–	–	–	–	–	–	95.7	108	107	60	104	94.2	119	112	117	98.8	112	112	119	78	112	217
Nc1ccccc1NC(=O)c1ccc(CNc2nccc(-c3cccnc3)n2)cc1 [Mocetinostat] (10000 nM)	–	–	–	–	–	–	–	–	–	–	–	–	34.8	34.1	17.4	7.12	-38.3	72.3	63.6	73.8	69.9	-1.8	48.6	84	-24.5	-9.9	92.3	-170
COc1nc(N)nc2c1ncn2[C@@H]1O[C@H](CO)[C@@H](O)[C@@H]1O [Nelarabine] (10000 nM)	–	–	–	–	–	–	–	–	–	–	–	–	96	87.5	93.8	111	138	98.5	99.1	96.5	94.5	111	91.4	83.2	97.9	91	87	122
Cc1ccc(Nc2nccc(N(C)c3ccc4c(C)n(C)nc4c3)n2)cc1S(N)(=O)=O [Pazopanib] (1000 nM)	–	–	–	–	–	–	–	–	–	–	–	–	104	127	101	107	101	100	99.3	105	101	94.3	110	77	99.5	64.8	95.2	50
Cc1ccc(Nc2nccc(N(C)c3ccc4c(C)n(C)nc4c3)n2)cc1S(N)(=O)=O [Pazopanib] (10000 nM)	–	–	–	–	–	–	–	–	–	–	–	–	99.5	119	94	76.9	78.9	104	55.8	100	85.7	111	77.2	94.8	99.7	96.9	102	162
C[C@]12C=CC(=O)C=C1CC[C@@H]1[C@@H]2[C@@H](O)C[C@@]2(C)[C@H]1CC[C@]2(O)C(=O)CO [Prednisolone] (10000 nM)	–	–	–	–	–	–	–	–	–	–	–	–	101	90.8	99.8	102	84.1	100	51	97.9	56.3	57.2	66.8	100	150	60.2	94.6	154
CC(C)N(CCCNC(=O)Nc1ccc(C(C)(C)C)cc1)C[C@H]1O[C@@H](n2cc(Br)c3c(N)ncnc32)[C@H](O)[C@@H]1O [SGC0946]	0	0	0	0	0	0	0	–	0	0	0	0	–	–	–	–	–	–	–	–	–	–	–	–	–	–	–	–
CNC(=O)c1cc(Oc2ccc(NC(=O)Nc3ccc(Cl)c(C(F)(F)F)c3)cc2)ccn1 [Sorafenib] (1000 nM)	–	–	–	–	–	–	–	–	–	–	–	–	100	111	101	115	89.9	97.7	101	97.5	99.2	103	118	89	100	87.5	102	70.1
CCN(CC)CCNC(=O)c1c(C)[nH]c(/C=C2\C(=O)Nc3ccc(F)cc32)c1C [Sunitinib] (100 nM)	–	–	–	–	–	–	–	–	–	–	–	–	103	127	98.3	86.5	99.8	98.1	107	106	114	76.8	77	108	123	97.1	102	102
CCN(CC)CCNC(=O)c1c(C)[nH]c(/C=C2\C(=O)Nc3ccc(F)cc32)c1C [Sunitinib] (1000 nM)	–	–	–	–	–	–	–	–	–	–	–	–	95	104	98.2	106	66.5	99.7	82.8	105	93.9	101	95.9	80.6	124	106	104	66.4
CC[C@@]1(O)C(=O)OCc2c1cc1n(c2=O)Cc2cc3c(CN(C)C)c(O)ccc3nc2-1 [Topotecan] (100 nM)	–	–	–	–	–	–	–	–	–	–	–	–	103	92.8	98.9	65	100	94.9	74.7	90.7	52.5	103	98.7	106	108	76.5	108	91.8
